Where a SMILES comes first, the peptide text is derived from it. [ ]: non-standard residue; d: D form.
Legend:
[1] = system: E. coli; assay: microbe, parasite or virus in culture; assay type: cell-based, Escherichia coli; conditions: 16 h
How it was run: (§1)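 Peptides were serially diluted twofold in Mueller-Hinton medium and combined 1:1 with bacterial suspensions prepared at 2×10^6 CFU. Readout was the minimal inhibitory concentration, i.e. the lowest concentration with no growth.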

[2] = system: MDREC 1229; assay: microbe, parasite or virus in culture; assay type: cell-based, Escherichia coli
How it was run: as §1

[3] = system: MDRAB 12036; assay type: cell-based, Acinetobacter baumannii
How it was run: as §1

[4] = system: MDRST 8007; assay: Minimal inhibitory concentration (MIC), single agent; assay type: cell-based, Salmonella typhimurium; conditions: agent alone
How it was run: as §1

[5] = system: B. subtilis; assay: microbe, parasite or virus in culture; assay type: cell-based, Bacillus subtilis
How it was run: as §1

[6] = system: S. aureus; assay: microbe, parasite or virus in culture; assay type: cell-based, Staphylococcus aureus
How it was run: as §1

[7] = system: E. coli; assay: MIC of antibiotic during combined treatment with antimicrobial peptide; assay type: cell-based, Escherichia coli; conditions: for Antibiotic MIC, Erythromycin / Antibiotic MIC, Linezolid / Antibiotic MIC, Vancomycin: E. coli
How it was run: (§2)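 Antibiotic diluted in MH medium, dispensed per well with peptide; setup repeated with roles reversed; MIC read per combination.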

[8] = system: MDREC 1229; assay: as above; assay type: cell-based, Escherichia coli
How it was run: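 Antibiotic MIC came from antibiotic dilutions added to bacteria (2×10^6 CFU/ml, MH medium) already combined with peptide serially diluted 2:1 from its own MIC. Swapping the roles of the two agents gave the peptide MIC.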

[9] = system: A. baumannii; assay: as above; assay type: cell-based, Acinetobacter baumannii
How it was run: as §2

[10] = peptide treatment concentration 1 μg/ml
[11] = peptide treatment concentration 2 μg/ml
[12] = peptide treatment concentration 4 μg/ml
[13] = peptide treatment concentration 6 μg/ml
[14] = peptide treatment concentration 8 μg/ml
[15] = peptide treatment concentration 16 μg/ml
[16] = peptide treatment concentration 32 μg/ml
[17] = peptide treatment concentration 64 μg/ml
[18] = A. baumannii, combined with peptide at 1 μg/ml

CC[C@H](C)[C@H](NC(=O)[C@H](CCCCN)NC(=O)[C@H](Cc1c[nH]c2ccccc12)NC(=O)[C@@H](N)CCCNC(=N)N)C(=O)N[C@@H](Cc1ccccc1)C(=O)N[C@@H](CCCCN)C(=O)N[C@@H](CCCCN)C(=O)N[C@H](C(=O)N[C@H](CCCCN)C(=O)N[C@@H](CCCCN)C(=O)N[C@@H](CC(C)C)C(=O)N[C@@H](CC(C)C)C(=O)N[C@@H](Cc1c[nH]cn1)C(=O)N[C@@H](CCC(=O)O)C(=O)N[C@@H](C)C(=O)N[C@@H](CCCCN)C(=O)N[C@@H](CCCCN)C(=O)N[C@@H](Cc1c[nH]c2ccccc12)C(N)=O)[C@@H](C)CC [PapMA-20, RWK IFK KIk KLL HEA KKW-NH2] (H-RWKIFKKI[dK]KLLHEAKKW-NH2; N-terminus assumed)
0.5 µg/mL: Antibiotic MIC, Erythromycin ([7]; erythromycin combined with peptide at 8 μg/ml)
8 µg/mL: Antibiotic MIC, Erythromycin ([7]; erythromycin combined with peptide at 4 μg/ml) | Antibiotic MIC, Linezolid ([7]; linezolid combined with peptide at 6 μg/ml) | Antibiotic MIC, Vancomycin ([7]; vancomycin combined with peptide at 8 μg/ml) | Antibiotic MIC, Erythromycin [8, 12] | Antibiotic MIC, Linezolid [8, 14] | Antibiotic MIC, Vancomycin [8, 14]
1 µg/mL: Antibiotic MIC, Erythromycin ([7]; erythromycin combined with peptide at 6 μg/ml) | Antibiotic MIC, Erythromycin [8, 14]
64 µg/mL: Minimal inhibitory concentration MIC [4] | Antibiotic MIC, Erythromycin ([7]; erythromycin combined with peptide at 1 μg/ml) | Antibiotic MIC, Linezolid ([7]; linezolid combined with peptide at 2 μg/ml) | Antibiotic MIC, Vancomycin ([7]; vancomycin combined with peptide at 4 μg/ml) | Antibiotic MIC, Linezolid [8, 11] | Antibiotic MIC, Vancomycin [8, 12]
16 µg/mL: Minimal inhibitory concentration MIC [1] | Minimal inhibitory concentration MIC [2] | Peptide MIC, peptide alone [2] | Minimal inhibitory concentration MIC [3] | Antibiotic MIC, Linezolid ([7]; linezolid combined with peptide at 4 μg/ml) | Antibiotic MIC, Vancomycin ([7]; vancomycin combined with peptide at 6 μg/ml) | Antibiotic MIC, Linezolid [8, 12] | Antibiotic MIC, Linezolid [8, 13] | Antibiotic MIC, Vancomycin [8, 13]
higher level than the PapMA-1 peptide: Synergistic effect of antibacterial activity with existing antibiotics compared with PapMA-1 ([7]; E. coli and MDREC1229) | Synergistic effect of antibacterial activity with existing antibiotics compared with PapMA-1 ([9]; A. baumannii and MDRAB 12035)
4 µg/mL: Antibiotic MIC, Linezolid ([7]; linezolid combined with peptide at 8 μg/ml)
0 µg/mL: Antibiotic MIC, Erythromycin ([7]; erythromycin combined with peptide at 16 μg/ml) | Antibiotic MIC, Erythromycin ([7]; erythromycin combined with peptide at 32 μg/ml) | Antibiotic MIC, Erythromycin ([7]; erythromycin combined with peptide at 64 μg/ml) | Antibiotic MIC, Linezolid ([7]; linezolid combined with peptide at 16 μg/ml) | Antibiotic MIC, Linezolid ([7]; linezolid combined with peptide at 32 μg/ml) | Antibiotic MIC, Linezolid ([7]; linezolid combined with peptide at 64 μg/ml) | Antibiotic MIC, Vancomycin ([7]; vancomycin combined with peptide at 16 μg/ml) | Antibiotic MIC, Vancomycin ([7]; vancomycin combined with peptide at 32 μg/ml) | Antibiotic MIC, Vancomycin ([7]; vancomycin combined with peptide at 64 μg/ml) | Antibiotic MIC, Erythromycin [8, 15] | Antibiotic MIC, Linezolid [8, 15] | Antibiotic MIC, Vancomycin [8, 15] | Antibiotic MIC, Erythromycin [8, 16] | Antibiotic MIC, Linezolid [8, 16] | Antibiotic MIC, Vancomycin [8, 16] | Antibiotic MIC, Erythromycin [8, 17] | Antibiotic MIC, Linezolid [8, 17] | Antibiotic MIC, Vancomycin [8, 17]
>128 µg/mL: Minimal inhibitory concentration MIC [5] | Minimal inhibitory concentration MIC [6] | Antibiotic MIC, Linezolid ([7]; linezolid combined with peptide at 1 μg/ml) | Antibiotic MIC, Vancomycin ([7]; vancomycin combined with peptide at 1 μg/ml) | Antibiotic MIC, Vancomycin ([7]; vancomycin combined with peptide at 2 μg/ml) | Antibiotic MIC, Linezolid [8, 10] | Antibiotic MIC, Vancomycin [8, 10] | Antibiotic MIC, Vancomycin [8, 11] | Antibiotic MIC, Linezolid [9, 18] | Antibiotic MIC, Vancomycin [9, 18]
128 µg/mL: Antibiotic MIC, Erythromycin [8, 10]
2 µg/mL: Antibiotic MIC, Erythromycin [8, 13]
32 µg/mL: Antibiotic MIC, Erythromycin ([7]; erythromycin combined with peptide at 2 μg/ml) | Antibiotic MIC, Erythromycin [8, 11] | Antibiotic MIC, Erythromycin [9, 18]

Reference: US11214594B2, “Antimicrobial peptide having synergistic antibacterial effect with antibiotics on multidrug resistant bacteria, and use thereof” (priority 2016, dated 2022)
